Target: T1, OlatOR1/OlatOR2 (Ostrinia latipennis, UniProt C1PHB5)
T1 sequence (C1PHB5 1-424): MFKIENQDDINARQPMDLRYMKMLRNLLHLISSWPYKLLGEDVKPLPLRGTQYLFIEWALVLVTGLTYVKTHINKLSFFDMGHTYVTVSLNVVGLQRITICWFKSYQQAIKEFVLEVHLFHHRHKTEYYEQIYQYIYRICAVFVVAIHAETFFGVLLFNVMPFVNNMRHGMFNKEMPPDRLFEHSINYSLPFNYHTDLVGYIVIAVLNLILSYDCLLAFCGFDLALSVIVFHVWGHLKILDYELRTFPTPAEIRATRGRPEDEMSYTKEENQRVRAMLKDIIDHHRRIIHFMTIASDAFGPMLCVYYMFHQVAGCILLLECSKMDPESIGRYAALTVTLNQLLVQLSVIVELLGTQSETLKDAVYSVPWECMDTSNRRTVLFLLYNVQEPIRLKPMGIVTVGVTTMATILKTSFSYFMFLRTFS
T1 sequence (C1PHA8 1-473 partner): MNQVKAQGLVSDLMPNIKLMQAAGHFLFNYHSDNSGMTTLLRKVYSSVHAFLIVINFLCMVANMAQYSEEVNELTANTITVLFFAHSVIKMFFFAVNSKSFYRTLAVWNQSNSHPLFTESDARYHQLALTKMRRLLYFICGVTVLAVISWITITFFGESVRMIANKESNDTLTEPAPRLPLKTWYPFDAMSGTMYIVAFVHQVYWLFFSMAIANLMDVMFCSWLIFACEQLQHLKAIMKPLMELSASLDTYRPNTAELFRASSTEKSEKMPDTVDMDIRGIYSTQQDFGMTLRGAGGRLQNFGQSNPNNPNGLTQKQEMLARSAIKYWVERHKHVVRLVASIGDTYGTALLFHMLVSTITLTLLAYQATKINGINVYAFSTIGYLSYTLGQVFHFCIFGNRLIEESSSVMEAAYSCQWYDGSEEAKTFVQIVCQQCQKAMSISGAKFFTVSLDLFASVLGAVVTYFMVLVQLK
Test: two-electrode voltage clamp, Xenopus oocytes
Assay type: cell-based
Conditions: agonist, inward current; -80 mV; pH 7.6; 10 µM

Row | SMILES | two-electrode voltage clamp, Xenopus oocytes
1 | CC/C=C/CCCCCCCCCCO [E11-14:OH, (E)-11-tetradecenol] | OscaOR1 and OlatOR1, strongly responded to E11-14:OH
2 | CCCC/C=C\CCCCCCCCCCOC(C)=O [Z11-16:OAc] | OlatOR1/OlatOR2 cells were found to show exactly the same response pattern as OscaOR1/OscaOR2 cells
